# Experimental data as given in PubChem BioAssay (NCI).
#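 Each compound was tested at five concentrations against cells in 96-well plates for 48 hours. GI50 = concentration required for 50% inhibition of growth. The concentration for full growth arrest is given as TGI.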
# Experiments:
# Test in all cases: NCI anticancer screen, dose series, 48 h
# MALME-3M melanoma = test system: MALME-3M melanoma
# SF-268 CNS = test system: SF-268 CNS
# KM12 colon = test system: KM12 colon
# K-562 leukemia = test system: K-562 leukemia
# OVCAR-3 ovarian = test system: OVCAR-3 ovarian
Compound,TGI (MALME-3M melanoma) [µM],TGI (SF-268 CNS) [µM],TGI (KM12 colon) [µM],TGI (K-562 leukemia) [µM],TGI (OVCAR-3 ovarian) [µM],GI50 (K-562 leukemia) [nM],GI50 (SF-268 CNS) [nM],GI50 (KM12 colon) [nM],GI50 (OVCAR-3 ovarian) [nM]
COc1ccc2c(c1)-c1c(c3ccccc3n1CCN1CCCCC1)CC2,39.3,> 95.5,> 56.9,18,26.1,,,,
CCOC(=O)Cc1nc2nn(Cc3ccccc3)cc2c(=O)[nH]1,> 100,> 100,> 100,> 100,> 100,,,,
CCOP(=O)(CCC(O)CNc1nc(N)nc(Cl)c1N=Nc1ccc(Cl)cc1)OCC (configuration not stated),21.4,42.7,37.5,> 100,25.3,,,,
CC(=O)NNc1nc(C)c(C(/C=C/c2ccccc2O)=N/NC(=O)c2ccncc2)s1,> 100,> 100,> 100,,> 100,,,,
Cc1ccc(-c2cnc(NC3OC(COC(=O)c4ccccc4)C(OC(=O)c4ccccc4)C(OC(=O)c4ccccc4)C3OC(=O)c3ccccc3)s2)cc1 (configuration not stated),> 100,> 100,,,> 100,,,,
CC(C)[Si](OCC/C=C/C1CCC(=O)C1C(O)C1CCCCC1)(C(C)C)C(C)C (configuration not stated),29.1,24.7,30,47,30.9,,,,
COC(=O)c1cccc(C)c1C1CN=NC12Cc1c(ccc(C)c1C)C2=O (configuration not stated),78.1,> 100,> 100,> 100,> 100,,,,
CCOC(=O)C(NC(=O)NCc1ccc(F)cc1)C(F)(F)F (configuration not stated),,> 100,,> 100,,,,,
Cc1ccc2nc(CN3CCCCC3)cc(=O)n2c1,> 100,> 100,> 100,> 100,> 100,,,,
CC(=O)/C(=C/N1C(=O)CC(=O)NC1=S)C(=O)Nc1ccccc1C,,> 100,> 100,,96.4,,,,
COC(=O)C1=C(C(=O)OC)C(C(=O)c2ccccc2)N2N=C(c3ccc(Cl)cc3)C=CC12 (configuration not stated),83.7,> 100,> 100,> 100,> 100,,,,
CCCOc1ccc(/C=C/C2=[N+](CCO)CCO2)cc1,> 100,> 100,> 100,> 100,> 100,,,,
COC(=O)C(Cc1ccccc1)C(=O)NC(CNC(=O)OCc1ccccc1)C(=O)OCc1ccccc1 (configuration not stated),43.2,> 100,> 100,45,48.7,,,,
Cn1c(=S)[nH]c2c(Cl)cc(Cl)cc2c1=O,,> 100,> 100,,> 100,,,,
CC1=CC[C@@]2(C)[C@@H]([C@@H]1C)[C@H]1CC[C@@H]3[C@@]4(C)CC[C@H](O)C(C)(C)[C@@H]4CC[C@@]3(C)[C@]1(C)C[C@@H]2O,> 68.7,25.2,> 74.8,> 100,45.5,,,,
C#CCOC(=O)C(N)CS (configuration not stated),> 100,> 100,> 100,> 100,> 100,,,,
O=S(=O)([N-]c1nc2ccccc2nc1-[n+]1ccccc1)c1ccccc1,> 100,> 100,> 100,> 100,> 100,,,,
COc1cc(/C=C2\CCC(C)c3c2nc(N)c(C#N)c3-c2cc(OC)c(OC)c(OC)c2)cc(OC)c1OC (configuration not stated),,> 100,> 100,> 100,,,,,
COc1ccc(OC)c2c(=O)cc(-c3ccccc3)[nH]c12,> 100,> 100,> 100,> 100,> 100,,,,
C=C(CO)[C@H]1CC/C(C)=C/CC/C(C)=C/C/C=C(\C)[C@H](O)C1,,51.4,29.5,> 100,93.6,,,,

Compound,TGI (MALME-3M melanoma) [µM],TGI (SF-268 CNS) [µM],TGI (KM12 colon) [µM],TGI (K-562 leukemia) [µM],TGI (OVCAR-3 ovarian) [µM],GI50 (K-562 leukemia) [nM],GI50 (SF-268 CNS) [nM],GI50 (KM12 colon) [nM],GI50 (OVCAR-3 ovarian) [nM]
C=CCNC(NCC=C)=C(C(Cl)=C(Cl)Cl)[N+](=O)[O-],30.7,> 100,> 100,54.3,> 100,,,,
NC(=O)CC1(O)C=CC(=O)C=C1,> 100,,> 100,> 100,> 100,,,,
CC(C(O)c1ccccc1)N(C)/N=N/c1nc2c([nH]1)c(=O)n(C)c(=O)n2C (configuration not stated),> 100,> 100,> 100,> 100,> 100,,,,
Nc1ccccc1C(=O)NNC(=O)c1ccccc1N,> 100,,> 100,> 100,> 100,,,,
[N-]=[N+]=Nc1cc(=O)n(-c2ccccc2)c(=O)n1-c1ccccc1,> 100,> 100,> 100,> 100,> 100,,,,
c1ccc2c(c1)n1c(N3CCOCC3)[n+]3ccccc3c1c1c3cccc[n+]3c(N3CCOCC3)n21,> 100,68.2,> 100,> 100,> 100,,,,
C=C1[C@H](OCC(C)C)[C@@H](OCC(C)C)[C@@H](O)C(C)(C)/C=C/[C@H](C)C(=O)[C@@]2(O)C[C@H](C)[C@H](O)[C@@H]2[C@H]1OCC(C)C,,> 7.5,> 7.5,> 7.5,> 7.5,,,,
CN=C1Nc2ccccc2C(=S)N2CSC[C@@H]12,> 100,> 100,> 100,> 100,> 100,,,,
C=CCN1C(=O)N/C(=C\c2ccc(Cl)cc2)C1=O,> 100,> 100,> 100,> 100,> 100,,,,
COc1ccccc1NC(=S)Nc1cccc(C)n1,> 100,> 100,> 100,> 100,> 100,,,,
Cc1cc2c(cc1Cl)SC(NNC(=O)c1ccncc1)=NS2(=O)=O,> 10,> 10,> 10,> 10,> 10,,,,
CC(C)CC(NC(=O)OCc1ccccc1)C(=O)NCCCCC(N)C(=O)NC(CCCCNC(=O)C(CC(C)C)NC(=O)OCc1ccccc1)C(=O)NC(CCCCNC(=O)C(CC(C)C)NC(=O)OCc1ccccc1)C(=O)NC(CCCCNC(=O)C(CC(C)C)NC(=O)OCc1ccccc1)C(=O)NC(CCCCNC(=O)C(CC(C)C)NC(=O)OCc1ccccc1)C(=O)NC(CCCCNC(=O)C(CC(C)C)NC(=O)OCc1ccccc1)C(=O)O (configuration not stated),> 100,,,> 100,> 100,,,,
O=C(/C=C/c1c(O)c2ccccc2[nH]c1=O)CC(=O)C(=O)Nc1cccc(O)c1,> 100,> 100,> 100,> 100,> 100,,,,
CNC(=O)C(C)NC(=O)C(Cc1ccccc1)NC(=O)OC(C)(C)C (configuration not stated),> 100,> 100,> 100,> 100,> 100,,,,
CC1=C/C(=N\N(C)C)C(C(O)(C(F)(F)F)C(F)(F)F)C(C)(C)C1 (configuration not stated),> 100,> 100,> 100,> 100,87.8,,,,
C/C(=C\c1csc(C)n1)[C@@H]1C[C@@H]2O[C@]2(C)CCC[C@H](C)[C@H](O)[C@@H](C)C(=O)C(C)(C)[C@@H](O)CC(=O)O1 (tested in a mixture with another compound),> 1,> 1,> 0.44,> 1,0.0839,26.2,,,
CO[C@H]1C[C@@H]2CC[C@@H](C)[C@@](O)(O2)C(=O)C(=O)N2CCCC[C@H]2C(=O)O[C@H]([C@H](C)C[C@@H]2CC[C@@H](OC(=O)C(C)(CO)CO)[C@H](OC)C2)CC(=O)[C@H](C)/C=C(\C)[C@@H](O)[C@@H](OC)C(=O)[C@H](C)C[C@H](C)/C=C/C=C/C=C/1C,,> 85.7,> 100,> 100,> 100,,2990,2170,1780
O=C(O)c1ccccc1C(=O)OCC1CCCN2CCCCC12 (configuration not stated),> 100,> 100,> 100,> 100,> 100,,,,
O=C(n1[nH]c(=O)n(-c2ccc([N+](=O)[O-])cc2)c1=O)C(Cl)(Cl)Cl,> 75,> 75,> 75,> 75,> 75,,,,
NC(=Nc1ccc(Cl)c(Cl)c1)c1ccccc1N,45.9,> 100,> 100,41.9,> 100,,,,

Compound,TGI (MALME-3M melanoma) [µM],TGI (SF-268 CNS) [µM],TGI (KM12 colon) [µM],TGI (K-562 leukemia) [µM],TGI (OVCAR-3 ovarian) [µM],GI50 (K-562 leukemia) [nM],GI50 (SF-268 CNS) [nM],GI50 (KM12 colon) [nM],GI50 (OVCAR-3 ovarian) [nM]
Cc1cc(Cl)ccc1NC(=O)/C(CC(=O)CC(c1ccccc1)c1c(O)c2ccccc2oc1=O)=N\O (configuration not stated),,> 100,> 100,,> 100,,,,
CCOC(=O)C1C(C(C)C)C2(C#N)C(=N)OC1(C)C2(C#N)C#N (configuration not stated),> 100,> 100,> 100,> 100,,,,,
COc1ccc(-c2cc(=O)c3c(O)c(OC)c(O)cc3o2)cc1O,> 25.8,> 100,18.6,> 52.7,> 100,,,,
Cc1nn(-c2ccccc2)c2nc3c(c(C)nn3-c3ccccc3)c(-c3ccccc3Br)c12,> 100,> 100,> 100,> 100,> 100,,,,
CC1=C(C#N)C(=O)N(/N=C/c2ccc(Cl)cc2)C(=O)/C1=c1\o/c(=C2/C(=O)N(/N=C/c3ccc(Cl)cc3)C(=O)C(C#N)=C2C)c2nccnc12,> 100,> 100,> 100,> 100,> 100,,,,
COC(=O)CC1CN(C(=O)OCc2ccccc2)C(C)(C)O1 (configuration not stated),> 100,,> 100,> 100,> 100,,,,
CC/C(=C/OC)P1(=O)OC(C)(C)CN1C(C)(C)C (configuration not stated),> 100,> 100,> 100,> 100,> 100,,,,
O=c1c2cc([N+](=O)[O-])cnc2sn1-c1ccc(Oc2ccccc2)cc1,74.9,> 100,> 100,,> 100,,,,
Cc1ccc(S(=O)(=O)Oc2coc(CO)cc2=O)cc1,44.5,44.8,18.7,> 100,31.9,,,,
CCCN(CCC)C(=S)N/N=C/c1cccc(C)n1,14.9,15.1,12.4,15,,,,,
O=c1[nH]c2nccn2c(Cl)c1Br,38.3,49.1,> 100,39.1,35.7,,,,
CC1(C)C[C@H]2C3=CC[C@@H]4[C@@]5(C)CC[C@H](O)C(C)(C)[C@@H]5CC[C@@]4(C)[C@]3(C)C[C@@H](O)[C@@]23C[C@@H]1OC3=O,> 100,> 100,> 100,> 100,> 100,,,,
CC1=C(C(=O)OC23CC4CC(CC(C4)C2)C3)C(c2ccccc2OC(F)F)C(C(=O)OC23CC4CC(CC(C4)C2)C3)=C(C)N1 (configuration not stated),> 100,> 100,> 100,,> 100,,,,
COCC1OCCN1C (configuration not stated),> 100,> 100,> 100,> 100,> 100,,,,
CC(C)CC(=O)OC[n+]1cccc(-c2c(COC(=O)NC(C)C)c(COC(=O)NC(C)C)c3n2CCC3)c1,> 100,> 100,> 100,> 100,> 100,,,,
CCN(CC)CCN1CCN=c2c3cc(OC)ccc3n3cnc4ccc1c2c43,2.74,2.54,2.45,2.68,3.26,,,,
CC(=O)CCC(=O)CC(O)(C(F)(F)F)C(F)(F)F,32.9,44.6,31.1,33.4,,,,,
CCOC(=O)c1c(-c2ccc(Cl)cc2)c(C#N)c(=S)n(C2OC(CO)C(O)C(O)C2O)c1-c1ccccc1 (configuration not stated),> 100,55.9,> 100,70.9,37.9,,,,
CCC/C(Cl)=N\OC(=O)Nc1ccc(Br)cc1,10.8,46.2,16.2,4.15,16.3,,,,
Clc1cccc(Cl)c1C1SCc2nc3cc4ccccc4cc3n21 (configuration not stated),> 100,> 100,> 100,> 100,> 100,,,,
